Laboratory results published in PubChem BioAssay AID192 (DTP/NCI, 2004).
Where “and” joins values, the source holds several entries; their conditions need not be identical. Identical values can stand only once. Inconclusive results and toxic doses are left out. How the source made its calls: active means survival T/C of 150% or more; inactive means T/C below 125% in these data. Numbered stars: 1 amine (or outer) side, 2 acyl side, 3 side chain; on linkers, the order of the positions; unused ones are H or OH. Bridge positions count the residues as written; N and C are the ends. Square brackets hold non-standard residues; d marks the D form. Peptide text beside a SMILES is read from it. I, II: the chains in the order shown. Actinocin(1to9) = Cc1c2oc3c(C)ccc(C(=O)[*:2])c3nc-2c(C(=O)[*:1])c(N)c1=O; Hyp = O=C(O)[CH]1C[CH](O)CN1; NMeV = CN[CH](C(=O)O)C(C)C; Sar = CNCC(=O)O

Tested on: BDF1 mice, B16 melanoma ip, median survival T/C
Test: NCI In Vivo Anticancer Drug Screen. Data for tumor model B16 Melanoma (intraperitoneal) in B6D2F1 (BDF1) mice
Settings: endpoint: median survival time, higher = longer survival
Outline: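 Vehicle-treated animals serve as the reference (C); treated animals (T) are scored for survival or tumor size after tumor transplantation.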

[1] = dose: 50.0 mg/kg/injection, schedule: Q01DX009 (ip), vehicle: saline with Tween-80
[2] = dose: 100.0 mg/kg/injection, schedule: Q01DX009 (ip), vehicle: saline with Tween-80
[3] = dose: 25.0 mg/kg/injection, schedule: Q01DX009 (ip), vehicle: saline
[4] = dose: 25.0 mg/kg/injection, schedule: Q01DX009 (ip), vehicle: saline with Tween-80
[5] = dose: 12.5 mg/kg/injection, schedule: Q01DX009 (ip), vehicle: Klucel (hydroxypropylcellulose) (HPC)
[6] = dose: 25.0 mg/kg/injection, schedule: Q01DX009 (ip), vehicle: Klucel (hydroxypropylcellulose) (HPC)
[7] = dose: 400.0 mg/kg/injection, schedule: Q01DX009 (ip), vehicle: Klucel (hydroxypropylcellulose) (HPC)
[8] = dose: 100.0 mg/kg/injection, schedule: Q01DX009 (ip), vehicle: Klucel (hydroxypropylcellulose) (HPC)
[9] = dose: 200.0 mg/kg/injection, schedule: Q01DX009 (ip), vehicle: Klucel (hydroxypropylcellulose) (HPC)

Measured: T/C

Cc1c2oc3c(C)ccc(C(=O)NC4C(=O)NC(C(C)C)C(=O)N5CCCC5C(=O)N(C)CC(=O)N(C)C(C(C)C)C(=O)OC4C)c3nc-2c(C(=O)NC2C(=O)NC(C(C)C)C(=O)N3CC(O)CC3C(=O)N(C)CC(=O)N(C)C(C(C)C)C(=O)OC2C)c(N)c1=O (stereo not drawn) (I: TV[Hyp][Sar][NMeV] / II: TVP[Sar][NMeV]; ester I:1-I:C, II:1-II:C; linker I:N-II:N via Actinocin(1to9); configuration not given here)
active: dose: 100.0 micrograms/kg/injection, schedule: Q01DX009 (ip), vehicle: saline + alcohol 152 % of control | dose: 150.0 micrograms/kg/injection, schedule: Q01DX009 (ip), vehicle: saline + alcohol 158 % of control
inactive: dose: 225.0 micrograms/kg/injection, schedule: Q04DX003 (ip), vehicle: saline + alcohol 120 % of control | dose: 450.0 micrograms/kg/injection, schedule: Q04DX003 (ip), vehicle: saline + alcohol 121 % of control | dose: 600.0 micrograms/kg/injection, schedule: Q04DX003 (ip), vehicle: saline + alcohol 95 % of control | dose: 900.0 micrograms/kg/injection, schedule: Q04DX003 (ip), vehicle: saline + alcohol 88 % of control

COc1ccc(Br)cc1
inactive: [1] 100 % of control | [2] 104 % of control

CC(=O)C(=O)C1=C2CCCN2CCc2cc3c(cc21)OCO3
inactive: dose: 12.5 mg/kg/injection, schedule: Q01DX009 (ip), vehicle: water 93 % of control | dose: 25.0 mg/kg/injection, schedule: Q01DX009 (ip), vehicle: water 98 % of control | dose: 50.0 mg/kg/injection, schedule: Q01DX009 (ip), vehicle: water 117 % of control | dose: 100.0 mg/kg/injection, schedule: Q01DX009 (ip), vehicle: water 89 % of control

C=CCc1ccccc1OC
inactive: [3] 116 % of control | dose: 50.0 mg/kg/injection, schedule: Q01DX009 (ip), vehicle: saline 109 % of control | dose: 100.0 mg/kg/injection, schedule: Q01DX009 (ip), vehicle: saline 106 % of control

CC(=O)O[C@@H]1[C@@H](O)C2=C3[C@]4(C)[C@@H]1C(C)(C)C(=O)C[C@@H]4[C@]3(O)[C@H](OC(C)=O)[C@@]1(C[C@@H]1C)C2=O
inactive: dose: 1.0 mg/kg/injection, schedule: Q01DX009 (ip), vehicle: saline with Tween-80 115 % of control | dose: 2.0 mg/kg/injection, schedule: Q01DX009 (ip), vehicle: saline with Tween-80 109 % of control | dose: 3.12 mg/kg/injection, schedule: Q01DX009 (ip), vehicle: saline with Tween-80 97 % of control and 101 % of control | dose: 4.0 mg/kg/injection, schedule: Q01DX009 (ip), vehicle: saline with Tween-80 102 % of control | dose: 6.25 mg/kg/injection, schedule: Q01DX009 (ip), vehicle: saline with Tween-80 104 % of control | dose: 8.0 mg/kg/injection, schedule: Q01DX009 (ip), vehicle: saline with Tween-80 114 % of control | dose: 12.5 mg/kg/injection, schedule: Q01DX009 (ip), vehicle: saline with Tween-80 119 % of control | [4] 104 % of control | [1] 101 % of control

O=C(O)CC(Br)C(=O)c1ccccc1 (stereo not drawn)
inactive: dose: 12.5 mg/kg/injection, schedule: Q04DX003 (ip), vehicle: saline with Tween-80 93 % of control | dose: 25.0 mg/kg/injection, schedule: Q04DX003 (ip), vehicle: saline with Tween-80 86 % of control | dose: 50.0 mg/kg/injection, schedule: Q04DX003 (ip), vehicle: saline with Tween-80 88 % of control

COC1(OC)C2(Cl)C(Cl)=C(Cl)C1(Cl)C1C(=O)C=CC(=O)C12 (stereo not drawn)
inactive: dose: 1.56 mg/kg/injection, schedule: Q01DX009 (ip), vehicle: Klucel (hydroxypropylcellulose) (HPC) 91 % of control | dose: 3.12 mg/kg/injection, schedule: Q01DX009 (ip), vehicle: Klucel (hydroxypropylcellulose) (HPC) 90 % of control | dose: 6.25 mg/kg/injection, schedule: Q01DX009 (ip), vehicle: Klucel (hydroxypropylcellulose) (HPC) 90 % of control | [5] 90 % of control | [6] 91 % of control | [7] 88 % of control

CC(C)(C[NH-])C[NH-].[Cl][Pt+2][Cl]
active: dose: 0.5 mg/kg/injection, schedule: Q04DX003 (ip), vehicle: water 164 % of control | dose: 1.0 mg/kg/injection, schedule: Q04DX003 (ip), vehicle: water 165 % of control and 183 % of control | dose: 2.0 mg/kg/injection, schedule: Q04DX003 (ip), vehicle: water 161 % of control and 201 % of control | dose: 4.0 mg/kg/injection, schedule: Q04DX003 (ip), vehicle: water 213 % of control

CCCC(C(=O)O)C1=CCCC1 (stereo not drawn)
inactive: [4] 115 % of control | [1] 112 % of control | [2] 103 % of control

N=C(N)c1ccc(OCCCOc2ccc(C(=N)N)cc2Br)c(Br)c1
inactive: dose: 6.25 mg/kg/injection, schedule: Q01DX009 (ip), vehicle: saline 97 % of control and 114 % of control | dose: 12.5 mg/kg/injection, schedule: Q01DX009 (ip), vehicle: saline 97 % of control and 111 % of control | [3] 97 % of control and 111 % of control

O=S(=O)(O)O.[NH-]C1CCCCC1[NH-].[Pt+2] (stereo not drawn)
active: dose: 0.32 mg/kg/injection, schedule: Q01DX009 (ip), vehicle: water 156 % of control and 167 % of control | dose: 0.63 mg/kg/injection, schedule: Q01DX009 (ip), vehicle: dextrose 175 % of control | dose: 0.63 mg/kg/injection, schedule: Q04DX003 (ip), vehicle: water 160 % of control | dose: 1.25 mg/kg/injection, schedule: Q01DX009 (ip), vehicle: dextrose 163 % of control | dose: 1.25 mg/kg/injection, schedule: Q04DX003 (ip), vehicle: water 163 % of control | dose: 3.0 mg/kg/injection, schedule: Q01DX009 (ip), vehicle: water 150 % of control | dose: 4.0 mg/kg/injection, schedule: Q01DX009 (ip), vehicle: water 150 % of control | dose: 5.0 mg/kg/injection, schedule: Q04DX003 (ip), vehicle: water 155 % of control

O=C(O)c1ccccc1C(=O)OC1CC2C=CC1C21CC1 (stereo not drawn)
inactive: [5] 96 % of control | [6] 96 % of control | dose: 50.0 mg/kg/injection, schedule: Q01DX009 (ip), vehicle: Klucel (hydroxypropylcellulose) (HPC) 93 % of control

CSc1ccc(NC(=O)Nc2ccccc2)cc1
inactive: [8] 102 % of control | [9] 98 % of control | [7] 95 % of control

O=c1[nH]cnc2c1cnn2-c1ccccc1
inactive: [8] 90 % of control | [9] 90 % of control | [7] 103 % of control

COC(=O)c1ccccc1NC(=O)Nc1ccccc1
inactive: [8] 110 % of control | [9] 105 % of control | [7] 99 % of control

O=C(O)/C(=C\c1ccc(Cl)cc1)c1ccc(Cl)cc1
inactive: dose: 37.5 mg/kg/injection, schedule: Q01DX009 (ip), vehicle: Klucel (hydroxypropylcellulose) (HPC) 87 % of control | dose: 75.0 mg/kg/injection, schedule: Q01DX009 (ip), vehicle: Klucel (hydroxypropylcellulose) (HPC) 92 % of control | dose: 150.0 mg/kg/injection, schedule: Q01DX009 (ip), vehicle: Klucel (hydroxypropylcellulose) (HPC) 93 % of control

CNC(=O)CCN1CCN(CC/C=C2\c3ccccc3Sc3ccc(Cl)cc32)CC1
inactive: dose: 0.12 mg/kg/injection, schedule: Q01DX009 (ip), vehicle: saline 105 % of control | dose: 0.51 mg/kg/injection, schedule: Q01DX009 (ip), vehicle: saline 100 % of control | dose: 1.03 mg/kg/injection, schedule: Q01DX009 (ip), vehicle: saline 87 % of control | dose: 2.06 mg/kg/injection, schedule: Q01DX009 (ip), vehicle: saline 95 % of control | dose: 4.12 mg/kg/injection, schedule: Q01DX009 (ip), vehicle: saline 97 % of control

Nc1ccc(C(=O)Oc2ccc([N+](=O)[O-])cc2)c(O)c1
inactive: [8] 87 % of control | [9] 97 % of control

Nc1nc([Se])c2ncn(C3OC(CO)C(O)C3O)c2n1 (stereo not drawn)
inactive: dose: 1.0 mg/kg/injection, schedule: Q01DX009 (ip), vehicle: saline 114 % of control | dose: 2.0 mg/kg/injection, schedule: Q01DX009 (ip), vehicle: saline 116 % of control and 117 % of control | dose: 4.0 mg/kg/injection, schedule: Q01DX009 (ip), vehicle: saline 114 % of control | dose: 8.0 mg/kg/injection, schedule: Q01DX009 (ip), vehicle: saline 116 % of control and 117 % of control | dose: 16.0 mg/kg/injection, schedule: Q01DX009 (ip), vehicle: saline 121 % of control

OCCN1CCN(CCCN2c3ccccc3CCc3ccccc32)CC1
inactive: dose: 3.9 mg/kg/injection, schedule: Q01DX009 (ip), vehicle: saline 95 % of control | dose: 7.81 mg/kg/injection, schedule: Q01DX009 (ip), vehicle: saline 93 % of control | dose: 15.62 mg/kg/injection, schedule: Q01DX009 (ip), vehicle: saline 100 % of control | dose: 31.25 mg/kg/injection, schedule: Q01DX009 (ip), vehicle: saline 97 % of control | dose: 62.5 mg/kg/injection, schedule: Q01DX009 (ip), vehicle: saline 95 % of control
